Broadly, the IC50 is the midpoint of a concentration-inhibition curve.

The target in test [1] is hOXIR (orexin-1 receptor) (Homo sapiens, UniProt O43613). As to the kind of experiment: FLIPR Ca2+ Flux Assay, orexin-1 receptor (hOXIR FLIPR). It counts as cell-based. Conditions: CHO cells expressing the orexin-1 receptor (method text: rat; table head: hOXIR); agonist 70 pM Ala-6,12 human orexin-A. The gist of the method: (§1)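 CHO cells expressing rat orexin-1 or human orexin-2 receptor were loaded with Fluo-4AM (1 μM, 60 min, 37 °C), preincubated with compound for 5 min, then stimulated with 70 pM Ala-6,12 human orexin-A in HBSS/HEPES/probenecid, pH7.4. Peak fluorescence over 5 min was compared with agonist-only wells to give IC50.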
(In general: Calcium flux is commonly read through the fluorescence of an indicator in the cells.)

Another test has as its target human orexin-2 receptor (Homo sapiens (Human), UniProt O43614). Put plainly: FLIPR Ca2+ Flux Assay, orexin-2 receptor (hOX2R FLIPR). The class given is cell-based. Particulars: CHO cells expressing the human orexin-2 receptor; agonist 70 pM Ala-6,12 human orexin-A. The gist of the method: as §1

Molecules are shown by their SMILES. Some results are limits rather than exact numbers.

Sequence of human orexin-2 receptor (O43614 whole entry): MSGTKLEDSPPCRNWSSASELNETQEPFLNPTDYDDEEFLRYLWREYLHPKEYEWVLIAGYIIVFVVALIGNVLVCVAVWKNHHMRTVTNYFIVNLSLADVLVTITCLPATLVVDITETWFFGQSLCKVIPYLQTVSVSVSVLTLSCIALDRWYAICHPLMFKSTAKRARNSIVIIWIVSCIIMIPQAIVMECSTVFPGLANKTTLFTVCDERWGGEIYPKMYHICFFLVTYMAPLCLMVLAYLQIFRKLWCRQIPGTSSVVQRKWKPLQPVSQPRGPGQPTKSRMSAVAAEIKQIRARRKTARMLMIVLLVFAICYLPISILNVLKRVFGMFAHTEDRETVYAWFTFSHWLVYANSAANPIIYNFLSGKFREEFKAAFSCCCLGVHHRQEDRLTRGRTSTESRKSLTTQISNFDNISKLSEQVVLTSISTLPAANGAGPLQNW

`Cc1noc(-c2ccc(F)cc2C(=O)N2C[C@H](n3ncc(C(C)(C)O)n3)CC[C@H]2C)n1` [Example 35, 2-{2-[(3R,6R)-1-{[5-fluoro-2-(3-methyl-1,2,4-oxadiazol-5-yl)phenyl]carbonyl}-6-methylpiperidin-3-yl]-2H-1,2,3-triazol-4-yl}propan-2-ol]: the IC50 is over 10000 nM in test [1] and 593 nM on human orexin-2 receptor.
`C[C@@H]1CC[C@@H](n2ncc(C(C)(C)O)n2)CN1C(=O)c1ccccc1-n1ncnn1` [Example 34, 2-{2-[(3R,6R)-6-methyl-1-{[2-(2H-tetrazol-2-yl)phenyl]carbonyl}piperidin-3-yl]-2H-1,2,3-triazol-4-yl}propan-2-ol]: the concentration for half-maximal inhibition (IC50) is over 10000 nM in test [1] and 36.8 nM at human orexin-2 receptor.
As for `Cc1noc(-c2c(F)cccc2C(=O)N2C[C@H](n3ncc(C(C)(C)O)n3)CC[C@H]2C)n1` [Example 48, 2-{2-[(3R,6R)-1-{[3-fluoro-2-(3-methyl-1,2,4-oxadiazol-5-yl)phenyl]carbonyl}-6-methylpiperidin-3-yl]-2H-1,2,3-triazol-4-yl}propan-2-ol], the IC50 in test [1] was over 10000 nM; on human orexin-2 receptor, 136 nM.
In the case of `Cc1nc(-c2ccc(F)cc2C(=O)N2C[C@H](n3ncc(C(C)(C)O)n3)CC[C@H]2C)no1` [Example 30, (5-Fluoro-2-(5-methyl-1,2,4-oxadiazol-3-yl)phenyl)((2R,5R)-5-(4-(2-hydroxypropan-2-yl)-2H-1,2,3-triazol-2-yl)-2-methylpiperidin-1-yl)methanone], the IC50 was over 10000 nM in test [1] and 138 nM at human orexin-2 receptor.
`C[C@@H]1CC[C@@H](n2ncc(C(C)(C)O)n2)CN1C(=O)c1ccccc1[C@H]1CC1(F)F` [Example 23, 2-{2-[(3R,6R)-1-({2-[(1R)-2,2-difluorocyclopropyl]phenyl}carbonyl)-6-methylpiperidin-3-yl]-2H-1,2,3-triazol-4-yl}propan-2-ol]: the IC50 in test [1] is over 10000 nM; on human orexin-2 receptor, 46.9 nM.
`C[C@@H]1CC[C@@H](n2ncc(C(C)(C)O)n2)CN1C(=O)c1cccc(F)c1-n1nccn1` [Example 31, 2-{2-[(3R,6R)-1-{[3-fluoro-2-(2H-1,2,3-triazol-2-yl)phenyl]carbonyl}-6-methylpiperidin-3-yl]-2H-1,2,3-triazol-4-yl}propan-2-ol]: the IC50 in test [1] was over 10000 nM; at human orexin-2 receptor it was 36.4 nM.
The like results for `COC(=O)c1ncccc1C(=O)N1C[C@H](n2ncc(C(C)(C)O)n2)CC[C@H]1C` [Example 8, Methyl 3-((2R,5R)-5-(4-(2-hy-droxypropan-2-yl)-2H-1,2,3-triazol-2-yl)-2-methylpiperidine-1-carbonyl)picolinate] were, in that order, over 10000 nM and 1780 nM.
On to `C[C@@H]1CC[C@@H](n2ncc(C(C)(C)O)n2)CN1C(=O)c1cccnc1OC(F)F` [Example 7, (2-(Difluoromethoxy)pyridin-3-yl)((2R,5R)-5-(4-(2-hydroxypropan-2-yl)-2H-1,2,3-triazol-2-yl)-2-methylpiperidin-1-yl)methanone], for which the IC50 was over 10000 nM in test [1] and 51.7 nM at human orexin-2 receptor.
`Cc1nn([C@@H]2CC[C@@H](C)N(C(=O)c3cccnc3OCC(F)F)C2)nc1C(C)(C)O` [Example 64, 2-{2-[(3R,6R)-1-{[2-(2,2-Difluoroethoxy)pyridin-3-yl]carbonyl}-6-methylpiperidin-3-yl]-5-methyl-2H-1,2,3-triazol-4-yl}propan-2-ol]: the IC50 in test [1] was found to be 2990 nM; at human orexin-2 receptor it was 8.8 nM.
The like results for `CC(C)Oc1ncccc1C(=O)N1C[C@H](n2cc(C(C)(C)O)cn2)CC[C@H]1C` [Example 97, 2-{1-[(3R,6R)-6-Methyl-1-{[2-(1-methylethoxy)pyridin-3-yl]carbonyl}piperidin-3-yl]-1H-pyrazol-4-yl}propan-2-ol] were, in that order, over 10000 nM and 240 nM.
The like results for `Cc1noc(-c2ccccc2C(=O)N2C[C@H](n3ncc(C(C)(C)O)n3)CC[C@H]2C)n1` [Example 36, 2-{2-[(3R,6R)-6-methyl-1-{[2-(3-methyl-1,2,4-oxadiazol-5-yl)phenyl]carbonyl}piperidin-3-yl]-2H-1,2,3-triazol-4-yl}propan-2-ol] were, in that order, over 10000 nM and 62.9 nM.
With `Cc1ccc(C(=O)N2C[C@H](n3ncc(C(C)(C)O)n3)CC[C@H]2C)c(-n2nccn2)n1` [Example 55, 2-{2-[(3R,6R)-6-methyl-1-{[6-methyl-2-(2H-1,2,3-triazol-2-yl)pyridin-3-yl]carbonyl}piperidin-3-yl]-2H-1,2,3-triazol-4-yl}propan-2-ol], the IC50 in test [1] was over 10000 nM; at human orexin-2 receptor, 222 nM.
`C[C@@H]1CC[C@@H](n2ncc(C(C)(C)O)n2)CN1C(=O)c1ccccc1OC(F)(F)F` [Example 19, ((2R,5R)-5-(4-(2-Hydroxypropan-2-yl)-2H-1,2,3-triazol-2-yl)-2-methylpiperidin-1-yl)(2-(trifluoromethoxy)phenyl)methanone]: the IC50 came out at 2800 nM in test [1] and 12.1 nM on human orexin-2 receptor.
On the same counts, the results for `COc1ccc(C(=O)N2C[C@H](n3cc(C(C)(C)O)cn3)CC[C@H]2C)c(C2CC2)n1` [Example 96, 2-(1-{(3R,6R)-1-[(2-Cyclopropyl-6-methoxypyridin-3-yl)carbonyl]-6-methylpiperidin-3-yl}-1H-pyrazol-4-yl)propan-2-ol] are over 10000 nM and 1600 nM.
Regarding `C[C@@H]1CC[C@@H](n2ncc(C(C)(C)O)n2)CN1C(=O)c1cccc(Oc2ccccc2)c1` [Example 50, 2-(2-{(3R,6R)-6-methyl-1-[(3-phenoxyphenyl)carbonyl]piperidin-3-yl}-2H-1,2,3-triazol-4-yl)propan-2-ol], the IC50 in test [1] was over 10000 nM; on human orexin-2 receptor, 126 nM.
The like results for `Cc1cccc(-n2nccn2)c1C(=O)N1C[C@H](n2ncc(C(C)(C)O)n2)CC[C@H]1C` [Example 53, 2-{2-[(3R,6R)-6-methyl-1-{[2-methyl-6-(2H-1,2,3-triazol-2-yl)phenyl]carbonyl}piperidin-3-yl]-2H-1,2,3-triazol-4-yl}propan-2-ol] were, in that order, 1810 nM and 31.1 nM.
Consider `CC(C)Oc1ccccc1C(=O)N1C[C@H](n2cc(C(C)(C)O)cn2)CC[C@H]1C` [Example 81, 2-{1-[(3R,6R)-6-Methyl-1-{[2-(1-methylethoxy)phenyl]carbonyl}piperidin-3-yl]-1H-pyrazol-4-yl}propan-2-ol], for which the 50% inhibitory concentration (IC50) was over 10000 nM in test [1] and 89.8 nM on human orexin-2 receptor.
The like results for `C[C@@H]1CC[C@@H](n2cc([C@@](C)(O)C(F)(F)F)cn2)CN1C(=O)c1ccccc1-n1nccn1` [Example 105, (2R)-1,1,1-Trifluoro-2-{1-[(3R,6R)-6-methyl-1-{[2-(2H-1,2,3-triazol-2-yl)phenyl]carbonyl}piperidin-3-yl]-1H-pyrazol-4-yl}propan-2-ol] were, in that order, 2730 nM and 9.4 nM.
On the same counts, the results for `C[C@@H]1CC[C@@H](n2cc(C(C)(C)O)cn2)CN1C(=O)c1ccccc1CC(F)F` [Example 99, 2-{1-[(3R,6R)-1-{[2-(2,2-Difluoroethyl)phenyl]carbonyl}-6-methylpiperidin-3-yl]-1H-pyrazol-4-yl}propan-2-ol] are over 10000 nM and 38.4 nM.

The values above are taken from patent US10010539B2, “Pyrazole, triazole and tetrazole orexin receptor antagonists” (MERCK SHARP & DOHME CORP., priority 2014, dated 2018).
